This passage reports EC50 results from US9920010B2, “CXCR7 receptor modulators” (IDORSIA PHARMACEUTICALS LTD, priority 2013, dated 2018).

Molecules are shown by their SMILES.

In the experiment the target is T1, CXCR7 (Homo sapiens, UniProt P25106).
T1 construct: host or cells: CHO-K1 (PathHunter CHO-K1 CXCR7 b-arrestin cell line, stably transfected)
As to the kind of experiment: PathHunter CHO-K1 CXCR7 b-arrestin recruitment assay (CXCR7 agonistic activity). Particulars: PathHunter CHO-K1 CXCR7 b-arrestin cell line. The experiment is classed as cell-based. In short, it runs like this:
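Stable CHO-K1 line with C-terminally ProLink-tagged CXCR7 and β-arrestin 2–EA fusion; β-arrestin recruitment restores β-gal activity, read by chemiluminescence after 1 h RT detection. Cells seeded 24 h, starved in OPTIMEM 3–4 h, exposed to compounds 90 min at 37 °C in HBSS/HEPES/BSA. Geometric-mean EC50 from repeated measurements.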
A general note: Arrestin recruitment assays detect the binding of arrestin to an activated receptor.

T1 sequence (P25106 whole entry): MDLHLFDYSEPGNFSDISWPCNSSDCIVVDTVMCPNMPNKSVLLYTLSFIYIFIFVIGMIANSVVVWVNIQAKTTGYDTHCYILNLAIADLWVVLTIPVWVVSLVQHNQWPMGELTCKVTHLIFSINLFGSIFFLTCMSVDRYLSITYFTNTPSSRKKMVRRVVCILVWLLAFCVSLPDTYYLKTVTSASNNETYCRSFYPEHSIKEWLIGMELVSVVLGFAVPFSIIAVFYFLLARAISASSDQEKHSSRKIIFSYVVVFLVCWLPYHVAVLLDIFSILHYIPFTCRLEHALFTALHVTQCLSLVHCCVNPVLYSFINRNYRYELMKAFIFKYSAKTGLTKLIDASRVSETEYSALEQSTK
T1 sequence (P32121 whole entry partner): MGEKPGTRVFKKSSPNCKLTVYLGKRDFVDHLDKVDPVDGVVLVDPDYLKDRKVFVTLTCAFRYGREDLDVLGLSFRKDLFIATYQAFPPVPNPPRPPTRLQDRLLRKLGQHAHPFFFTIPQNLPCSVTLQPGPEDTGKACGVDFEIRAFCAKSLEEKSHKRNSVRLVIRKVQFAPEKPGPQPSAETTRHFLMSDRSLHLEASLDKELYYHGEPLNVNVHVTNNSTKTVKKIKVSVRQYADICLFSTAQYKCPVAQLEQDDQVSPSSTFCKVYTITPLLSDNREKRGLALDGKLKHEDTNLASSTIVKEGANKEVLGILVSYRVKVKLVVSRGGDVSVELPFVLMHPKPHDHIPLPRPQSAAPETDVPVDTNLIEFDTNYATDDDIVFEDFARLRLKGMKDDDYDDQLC

Consider `CN(C)CCN(Cc1ncccc1C(F)(F)F)C(=O)CNc1cccc2c1CCN(CC1CC1)C2` [Example 47, 2-(2-Cyclopropylmethyl-1,2,3,4-tetrahydro-isoquinolin-5-ylamino)-N-(2-dimethylamino-ethyl)-N-(3-trifluoromethyl-pyridin-2-ylmethyl)-acetamide], for which the EC50 was 2 nM.

`CN(C)CCN(Cc1ccccc1C(F)(F)F)C(=O)CNc1cccc2c1CCN(C(=O)[C@H]1C[C@H]1F)C2` (racemic) [Example 363, rac-N-(2-Dimethylamino-ethyl)-2-[2-((1R*,2R*)-2-fluoro-cyclopropanecarbonyl)-1,2,3,4-tetrahydro-isoquinolin-5-ylamino]-N-(2-trifluoromethyl-benzyl)-acetamide] had an EC50 of 3 nM.

Molecule `CN(C)CCN(Cc1ccccc1Cl)C(=O)/C=C/c1cccc2c1CCN(CC1CC1)C2` [compound 146, (E)-N-(2-Chloro-benzyl)-3-(2-cyclopropylmethyl-1,2,3,4-tetrahydro-isoquinolin-5-yl)-N-(2-dimethylamino-ethyl)-acrylamide] yielded an EC50 of 2 nM.

As for `CCN1CCc2cccc(NCC(=O)N(CCN(C)C)C(C)c3ccccc3C(F)(F)F)c2C1` (racemic) [compound 522], the EC50 is 140 nM. Against the preceding molecule, the EC50 is about 70-fold higher.

The molecule `O=C(CNc1cccc2c1CN(CC1CC1)CC2)N(CCN1CCCC(F)(F)C1)Cc1ncccc1C(F)(F)F` [compound 480, 2-(2-Cyclopropylmethyl-1,2,3,4-tetrahydro-isoquinolin-8-ylamino)-N-[2-(3,3-difluoro-piperidin-1-yl)-ethyl]-N-(3-trifluoromethyl-pyridin-2-ylmethyl)-acetamide] yielded an EC50 of 28 nM. Against the preceding molecule, the EC50 is about 5-fold lower.

For the molecule `CCN1CCc2c(cccc2N(CC)CC(=O)N(CCN(C)C)Cc2ccccc2)C1` [Example 102, N-Benzyl-N-(2-dimethylamino-ethyl)-2-[ethyl-(2-ethyl-1,2,3,4-tetrahydro-isoquinolin-5-yl)-amino]-acetamide], it took 370 nM to reach a half-maximal effect (EC50).

For `CN1CCc2c(cccc2NCC(=O)N(Cc2ccccc2)CC2CC2)C1` [Example 175, N-Benzyl-N-cyclopropylmethyl-2-(2-methyl-1,2,3,4-tetrahydro-isoquinolin-5-ylamino)-acetamide], it took 339 nM to reach a half-maximal effect (EC50).

`O=C(CNc1cccc2c1CCN(CC1CC1)C2)N(CCOCc1ccccc1)Cc1ccccc1C(F)(F)F` [Example 82, N-(2-Benzyloxy-ethyl)-2-(2-cyclopropylmethyl-1,2,3,4-tetrahydro-isoquinolin-5-ylamino)-N-(2-trifluoromethyl-benzyl)-acetamide]: a half-maximal effect (EC50) was put at 158 nM.

Turning to `CC(C)(C)OC(=O)N1[C@H](CN(Cc2ccccc2C(F)(F)F)C(=O)CNc2cccc3c2CCN(CC2CC2)C3)COC1(C)C` [Example 84, (R)-4-{[[2-(2-Cyclopropylmethyl-1,2,3,4-tetrahydro-isoquinolin-5-ylamino)-acetyl]-(2-trifluoromethyl-benzyl)-amino]-methyl}-2,2-dimethyl-oxazolidine-3-carboxylic acid tert-butyl ester], a half-maximal effect (EC50) was put at 272 nM. Against the preceding molecule, the EC50 is about 1.7-fold higher.

`O=C(CNc1cccc2c1CCN(CC1CC1)C2)N(CCN1CCC(F)(F)CC1)Cc1ncccc1C(F)(F)F` [Example 279, 2-(2-Cyclopropylmethyl-1,2,3,4-tetrahydro-isoquinolin-5-ylamino)-N-[2-(4,4-difluoro-piperidin-1-yl)-ethyl]-N-(3-trifluoromethyl-pyridin-2-ylmethyl)-acetamide] returned an EC50 of 8 nM.

The molecule `CC(C)CN1Cc2cccc(NCC(=O)N(CCN3CCCC3)Cc3ccccc3C(F)(F)F)c2CC1=O` [Example 314, 2-(2-Isobutyl-3-oxo-1,2,3,4-tetrahydro-isoquinolin-5-ylamino)-N-(2-pyrrolidin-1-yl-ethyl)-N-(2-trifluoromethyl-benzyl)-acetamide] yielded an EC50 of 23 nM.

In the case of `CCN1CCc2c(CCC(=O)N(CCN(C)C)Cc3ccccc3Cl)cccc2C1` [compound 155, N-(2-Chloro-benzyl)-N-(2-dimethylamino-ethyl)-3-(2-ethyl-1,2,3,4-tetrahydro-isoquinolin-5-yl)-propionamide], the EC50 stood at 17 nM. This EC50 and that of the molecule before are within 1.5-fold of each other.

The molecule `CNCCN(Cc1ccccc1C(F)(F)F)C(=O)CNc1cccc2c1CCN(C(C)=O)C2` [compound 445, 2-(2-Acetyl-1,2,3,4-tetrahydro-isoquinolin-5-ylamino)-N-(2-methylamino-ethyl)-N-(2-trifluoromethyl-benzyl)-acetamide] yielded an EC50 of 11 nM. Compared with the last molecule, the EC50 is about 1.5-fold lower.

The molecule `O=C(/C=C/c1cccc2c1CCN(C(=O)[C@H]1C[C@H]1F)C2)N(CCN1CCC(F)(F)CC1)Cc1ncccc1Cl` (racemic) [Example 332, rac-(E)-N-(3-Chloro-pyridin-2-ylmethyl)-N-[2-(4,4-difluoro-piperidin-1-yl)-ethyl]-3-[2-((1R*,2R*)-2-fluoro-cyclopropanecarbonyl)-1,2,3,4-tetrahydro-isoquinolin-5-yl]-acrylamide] registered an EC50 of 96 nM.

As a reminder, the EC50 is the concentration at which the effect is half-maximal. A high value points to lower potency in that assay.
